# Laboratory results as given in patent US8378104B2 (OSI Pharmaceuticals, LLC, priority 2010, dated 2013).
# Structures can show the parent of a compound that is named as a salt.
# Biological target: T1, TAK1-TAB1 fusion protein (Homo sapiens, UniProt O43318)
# T1 construct: purchased Carna
# T1 sequence (O43318 with tags, fused parts or gaps limits assumed): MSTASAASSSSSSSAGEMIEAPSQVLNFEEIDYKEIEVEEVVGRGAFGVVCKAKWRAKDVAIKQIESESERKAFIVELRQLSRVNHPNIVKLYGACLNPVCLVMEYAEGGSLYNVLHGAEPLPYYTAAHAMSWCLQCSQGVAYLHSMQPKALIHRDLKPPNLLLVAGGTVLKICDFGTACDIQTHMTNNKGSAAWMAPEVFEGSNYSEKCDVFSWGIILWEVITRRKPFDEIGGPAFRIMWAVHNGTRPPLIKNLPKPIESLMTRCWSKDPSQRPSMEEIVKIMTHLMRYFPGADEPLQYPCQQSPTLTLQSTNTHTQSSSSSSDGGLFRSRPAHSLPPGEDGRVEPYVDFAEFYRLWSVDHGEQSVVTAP
# Assay: TAK1 biochemical assay (AlphaScreen, GST-MAP2K7 substrate)
# Details: TAK1-TAB1 fusion protein, GST-MAP2K7 substrate; read-out: mean TAK1 IC50 (Col. A)
row,Structure (SMILES),IC50 [nM]
1,"CC(=O)N1CCC(n2cc(-c3cnc(N)c4oc(-c5ccccc5C(N)=O)cc34)cn2)CC1 [Example 172, 2-{4-[1-(1-acetylpiperidin-4-yl)-1H-pyrazol-4-yl]-7-aminofuro[2,3-c]pyridin-2-yl}benzamide]",1000 to 10000
2,"CC(=O)N1CCC(n2cc(-c3cnc(N)c4oc(-c5ccc6c(c5)NC(=O)C6)cc34)cn2)CC1 [Example 144, 6-{4-[1-(1-acetylpiperidin-4-yl)-1H-pyrazol-4-yl]-7-aminofuro[2,3-c]pyridin-2-yl}-1,3-dihydro-2H-indol-2-one]",1000 to 10000
3,"Nc1ncc(-c2cnn(C3CCNCC3)c2)c2cc(-c3cccc(-c4nnn[nH]4)c3)oc12 [Example 40, 4-[1-(piperidin-4-yl)-1H-pyrazol-4-yl]-2-[3-(1H-tetrazol-5-yl)phenyl]furo[2,3-c]pyridine-7-amine]",1000 to 10000
4,"Nc1ncc(-c2cnn(C3CCNCC3)c2)c2cc(-c3cccc4cc[nH]c34)oc12 [Example 42, 2-(1H-indol-7-yl)-4-[1-(piperidin-4-yl)-1H-pyrazol-4-yl]furo[2,3-c]pyridin-7-amine]",100 to 1000
5,"CC(=O)N1CCC(n2cc(-c3cnc(N)c4oc(-c5ccc(N)c(C)c5)cc34)cn2)CC1 [Example 140, 1-(4-{4-[7-amino-2-(4-amino-3-methylphenyl)furo[2,3-c]pyridin-4-yl]-1H-pyrazol-1-yl}piperidin-1-yl)ethanone]",1000 to 10000
6,"COc1cc2c(-c3cc4c(-c5cnn([C@H]6CC[C@H](O)CC6)c5)cnc(N)c4o3)csc2cn1 [Example 250, trans-4-{4-[7-amino-2-(5-methoxythieno[2,3-c]pyridin-3-yl)furo[2,3-c]pyridin-4-yl]-1H-pyrazol-1-yl}cyclohexanol bis(trifluoroacetate)]",1000 to 10000
7,"Cn1cnc(-c2cnc(N)c3oc(-c4csc5cnccc45)cc23)c1 [Example 395, 4-(1-methyl-1H-imidazol-4-yl)-2-thieno[2,3-c]pyridin-3-yl-furo[2,3-c]pyridin-7-ylamine]",> 10000
8,"Nc1ncc(-c2cnn(C3CCNCC3)c2)c2cc(-c3ccc4[nH]c(=O)[nH]c4c3)oc12 [Example 25, 5-{7-amino-4-[1-(piperidin-4-yl)-1H-pyrazol-4-yl]furo[2,3-c]pyridine-2-yl}-1,3-dihydro-2H-benzimidazol-2-one]",1000 to 10000
9,"Nc1ncc(-c2cscn2)c2cc(-c3csc4cnccc34)oc12 [Example 396, 4-thiazol-4-yl-2-thieno[2,3-c]pyridin-3-yl-furo[2,3-c]pyridin-7-ylamine]",1000 to 10000
10,"Cn1ccc(-c2cnc(N)c3oc(-c4csc5cnccc45)cc23)c1 [Example 389, 4-(1-methyl-1H-pyrrol-3-yl)-2-(thieno[2,3-c]pyridin-3-yl)furo[2,3-c]pyridin-7-amine trifluoroacetate]",1000 to 10000
11,"COCc1ccccc1-c1cc2c(-c3cnn(C4CCN(C(C)=O)CC4)c3)cnc(N)c2o1 [Example 195, 1-[4-(4-{7-amino-2-[2-(methoxymethyl)phenyl]furo[2,3-c]pyridin-4-yl}-1H-pyrazol-1-yl)piperidin-1-yl]ethanone]",1000 to 10000
12,"CC(=O)N1CCC(n2cc(-c3cnc(N)c4oc(-c5ccc(N)c(C#N)c5)cc34)cn2)CC1 [Example 104, 5-{4-[1-(1-acetylpiperidin-4-yl) 1H-pyrazol-4-yl]-7-aminofuro[2,3-c]pyridin-2-yl}-2-aminobenzonitrile]",1000 to 10000
13,"COCCOc1cccc(-c2cc3c(-c4cnn(C5CCN(C(C)=O)CC5)c4)cnc(N)c3o2)c1 [Example 200, 1-[4-(4-{7-amino-2-[3-(2-methoxyethoxy)phenyl]furo[2,3-c]pyridin-4-yl}-1H-pyrazol-1-yl)piperidin-1-yl]ethanone]",1000 to 10000
14,"Nc1ncc(-c2cnn(C3CCNCC3)c2)c2c(Cl)c(-c3cccc4cnccc34)oc12 [Example 16, 3-chloro-2-(isoquinoolin-5-yl)-4-[1-(piperidin-4-yl)-1H-pyrazol-4-yl]furo[2,3-c]pyridin-7-amine]",1000 to 10000
15,"COc1ccccc1NCCC(=O)N1CCC(n2cc(-c3cnc(N)c4oc(-c5cccc6cnsc56)cc34)cn2)CC1 [Example 336, 1-{4-[4-(7-amino-2-benzo[d]iso-thiazol-7-yl-furo[2,3-c]pyridin-4-yl)-pyrazol-1-yl]-piperidin-1-yl}-3-(2-methoxy-phenyl-amino)-propan-1-one]",100 to 1000
16,"Nc1ncc(-c2cnn(C3CCNCC3)c2)c2cc(-c3cccc4ccccc34)oc12 [Example 3, 2-(naphthalen-1-yl)-4-[1-(piperidin-4-yl)-1H-pyrazol-4-yl]furo[2,3-c]pyridin-7-amine]",1000 to 10000
17,"Nc1ncc(-c2cnn(CC(O)CO)c2)c2cc(-c3cccc4cnccc34)oc12 (stereo not shown) [Example 66, 3-{4-[7-amino-2-(isoquinolin-5-yl)furo[2,3-c]pyridin-4-yl]-1H-pyrazol-1-yl}propane-1,2-diol]",1000 to 10000
18,"CC(=O)Nc1cccc(-c2cc3c(-c4cnn(C5CCN(C(C)=O)CC5)c4)cnc(N)c3o2)c1 [Example 137, N-(3-{4-[1-(1-acetylpiperidin-4-yl) 1H-pyrazol-4-yl]-7-aminofuro[2,3-c]pyridin-2-yl}phenyl)acetamide]",1000 to 10000
19,"CC(=O)N1CCC(n2cc(-c3cnc(N)c4oc(-c5csc6cn(C)c(=O)cc56)cc34)cn2)CC1 [Example 244, 3-{4-[1-(1-acetylpiperidin-4-yl)-1H-pyrazol-4-yl]-7-aminofuro[2,3-c]pyridin-2-yl}-6-methylthieno[2,3-c]pyridin-5(6H)-one trifluoroacetate]",1000 to 10000
20,"CC(=O)N1CCC(n2cc(-c3cnc(N)c4oc(-c5ccc(COc6cccc7ccccc67)cc5)cc34)cn2)CC1 [Example 156, 1-{4-[4-(7-amino-2-{4-[(naphthalen-1-yloxy)methyl]phenyl}furo[2,3-c]pyridin-4-yl)-1H-pyrazol-1-yl]piperidin-1-yl}ethanone]",> 10000
21,"CC(=O)N1CCC(n2cc(-c3cnc(N)c4oc(-c5cccc(OCc6cccc(Cl)c6)c5)cc34)cn2)CC1 [Example 201, 1-{4-[4-(7-amino-2-{3-[(3-chlorobenzyl)oxy]phenyl}furo[2,3-c]pyridin-4-yl)-1H-pyrazol-1-yl]piperidin-1-yl}ethanone]",> 10000
22,"COc1cccc(-c2cc3c(-c4cnn(C5CCN(C(C)=O)CC5)c4)cnc(N)c3o2)c1 [Example 161, 1-(4-{4-[7-amino-2-(3-methoxyphenyl)furo[2,3-c]pyridin-4-yl]-1H-pyrazol-1-yl}piperidin-1-yl)ethanone]",1000 to 10000
23,"Cn1cc(-c2cnc(N)c3oc(-c4ccccc4)cc23)cn1 [Example 56, 4-(1-methyl-1H-pyrazol-4-yl)-2-phenylfuro[2,3-d]pyridin-7-amine]",> 10000
24,"CC(=O)N1CCC(n2cc(-c3cnc(N)c4oc(-c5cccc(OCc6ccncc6)c5)cc34)cn2)CC1 [Example 203, 1-[4-(4-{7-amino-2-[3-(pyridin-4-ylmethoxy)phenyl]furo[2,3-c]pyridin-4-yl}-1H-pyrazol-1-yl)piperidin-1-yl]ethanone]",100 to 1000
25,"Cc1nc(-c2cnc(N)c3oc(-c4csc5cnccc45)cc23)cs1 [Example 390, 4-(2-methyl-1,3-thiazol-4-yl)-2-(thieno[2,3-c]pyridin-3-yl)furo[2,3-c]pyridin-7-amine trifluoroacetate]",1000 to 10000
